This note sets out measurements from patent US20250059198A1, “BRM DEGRADING COMPOUNDS AND ASSOCIATED METHODS OF USE” (Arvinas Operations, Inc., priority 2021, published 2025).

Broadly, the DC50 is the concentration at which degradation of the target reaches its halfway point. A lower DC50 goes with a more potent degrader. A word on the Dmax: it is the largest share of the target that was removed.

The assay deals with T1, BRM (Homo sapiens, UniProt P51531).
T1 construct: Western Blot Screen of BRM Degradation in SW1573 Cells; endogenous in cells; host or cells: SW1573 cells
The experiment in a line: BRM degradation (Dmax and DC50) in SW1573 cells, Western blot screen / In-Cell Western screen. It is filed as cell-based. The conditions noted are these: overnight (18-20 hours) treatment; for Dmax: read-out: Dmax (%)** (% degraded). In outline: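 SW1573 cells were treated with compound for 18–20 h (final 0.1% DMSO). BRM was quantified either by Western blot of RIPA lysates or by fixed-cell In-Cell Western (LI-COR, 800/680 nm), each normalised to alpha-tubulin, giving Dmax and DC50.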
For orientation: In western blotting, separated proteins are transferred to a membrane and probed.

Structures are written as SMILES.

T1 sequence (P51531 whole entry): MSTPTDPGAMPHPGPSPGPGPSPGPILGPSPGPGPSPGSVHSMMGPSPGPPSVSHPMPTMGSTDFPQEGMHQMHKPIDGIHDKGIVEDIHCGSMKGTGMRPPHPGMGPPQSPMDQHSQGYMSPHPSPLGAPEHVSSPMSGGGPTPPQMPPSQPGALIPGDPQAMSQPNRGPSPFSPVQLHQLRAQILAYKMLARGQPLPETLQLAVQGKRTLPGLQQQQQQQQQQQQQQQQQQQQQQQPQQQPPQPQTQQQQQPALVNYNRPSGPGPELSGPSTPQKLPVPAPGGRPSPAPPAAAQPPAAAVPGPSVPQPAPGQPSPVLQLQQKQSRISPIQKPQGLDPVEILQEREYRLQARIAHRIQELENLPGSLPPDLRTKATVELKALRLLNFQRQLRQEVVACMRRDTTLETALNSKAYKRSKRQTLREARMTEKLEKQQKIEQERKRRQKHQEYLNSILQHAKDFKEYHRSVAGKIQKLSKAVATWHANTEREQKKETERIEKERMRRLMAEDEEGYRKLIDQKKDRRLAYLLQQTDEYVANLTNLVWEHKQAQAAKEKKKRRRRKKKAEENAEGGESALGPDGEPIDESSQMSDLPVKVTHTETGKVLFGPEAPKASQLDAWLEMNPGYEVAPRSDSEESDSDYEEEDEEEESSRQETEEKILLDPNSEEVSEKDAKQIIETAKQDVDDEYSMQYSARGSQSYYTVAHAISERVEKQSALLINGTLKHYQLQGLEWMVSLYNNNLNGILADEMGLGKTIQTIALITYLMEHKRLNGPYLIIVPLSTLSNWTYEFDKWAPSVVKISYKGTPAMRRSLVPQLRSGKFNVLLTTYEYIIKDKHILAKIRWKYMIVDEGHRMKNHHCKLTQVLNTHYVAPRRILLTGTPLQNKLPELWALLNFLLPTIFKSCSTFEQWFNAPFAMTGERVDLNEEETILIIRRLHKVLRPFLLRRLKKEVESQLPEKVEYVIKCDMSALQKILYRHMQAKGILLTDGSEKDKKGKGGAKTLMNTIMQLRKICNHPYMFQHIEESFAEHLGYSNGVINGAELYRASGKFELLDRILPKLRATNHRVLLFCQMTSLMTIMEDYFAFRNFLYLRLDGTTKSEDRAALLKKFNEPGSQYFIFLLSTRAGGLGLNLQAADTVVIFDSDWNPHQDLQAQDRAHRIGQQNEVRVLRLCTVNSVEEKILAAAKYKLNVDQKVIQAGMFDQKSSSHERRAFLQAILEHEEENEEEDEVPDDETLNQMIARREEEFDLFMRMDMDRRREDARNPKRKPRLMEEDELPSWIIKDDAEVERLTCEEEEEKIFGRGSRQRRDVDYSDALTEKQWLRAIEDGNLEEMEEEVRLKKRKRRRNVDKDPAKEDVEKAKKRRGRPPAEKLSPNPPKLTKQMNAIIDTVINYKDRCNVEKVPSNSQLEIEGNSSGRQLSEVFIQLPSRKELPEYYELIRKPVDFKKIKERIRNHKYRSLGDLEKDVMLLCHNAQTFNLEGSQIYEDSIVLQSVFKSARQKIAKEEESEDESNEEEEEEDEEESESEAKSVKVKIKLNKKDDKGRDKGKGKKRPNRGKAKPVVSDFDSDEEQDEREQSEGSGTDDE

For the compound `Cc1ncsc1-c1ccc([C@H](C)NC(=O)[C@@H]2C[C@@H](O)CN2C(=O)[C@@H](c2cc(N3CCC(CN4CCC(O[C@H]5C[C@H](N6CCC(C(C)(C)N7C8CCC7CN(c7cc(-c9ccccc9O)nnc7N)C8)CC6)C5)CC4)CC3)no2)C(C)C)cc1` [Compound 22, (2S,4R)-4-hydroxy-N-[(1S)-1-[4-(4-methyl-1,3-thiazol-5-yl)phenyl]ethyl]-1-[(2R)-3-methyl-2-{3-[4-({4-[(1r,3r)-3-[4-(2-{3-[3-amino-6-(2-hydroxyphenyl)pyridazin-4-yl]-3,8-diazabicyclo[3.2.1]octan-8-yl}propan-2-yl)piperidin-1-yl]cyclobutoxy]piperidin-1-yl}methyl)piperidin-1-yl]-1,2-oxazol-5-yl}butanoyl]pyrrolidine-2-carboxamide], the DC50 is < 2.5 nM and the greatest degradation seen (Dmax) was > 75%. Regarding `Cc1ncsc1-c1ccc([C@H](C)NC(=O)[C@@H]2C[C@@H](O)CN2C(=O)[C@@H](c2cc(N3CCC(CN4CCC5(CC4)CC(N4CCO[C@@H](C#CC(C)n6cc(-c7cc(-c8ccccc8O)nnc7N)cn6)C4)C5)CC3)no2)C(C)C)cc1` (stereo partly drawn) [Compound 121, (2S,4R)-1-[(2R)-2-{3-[4-({2-[(2S)-2-(3-{4-[3-amino-6-(2-hydroxyphenyl)pyridazin-4-yl]-1H-pyrazol-1-yl}but-1-yn-1-yl)morpholin-4-yl]-7-azaspiro[3.5]nonan-7-yl}methyl)piperidin-1-yl]-1,2-oxazol-5-yl}-3-methylbutanoyl]-4-hydroxy-N-[(1S)-1-[4-(4-methyl-1,3-thiazol-5-yl)phenyl]ethyl]pyrrolidine-2-carboxamide], the DC50 is < 2.5 nM and the Dmax was > 75%. The corresponding values for `Cc1ncsc1-c1ccc([C@H](C)NC(=O)[C@@H]2C[C@@H](O)CN2C(=O)[C@@H](c2cc(N3CCC(CN4CCC(CN5CCC6(CC5)CC(N5CCC(C(C)n7cc(-c8cc(-c9ccccc9O)nnc8N)cn7)CC5)C6)CC4)CC3)no2)C(C)C)cc1` (stereo partly drawn) [Compound 31, (2S,4R)-1-[(2R)-2-[3-(4-{[4-({2-[4-(1-{4-[3-amino-6-(2-hydroxyphenyl)pyridazin-4-yl]-1H-pyrazol-1-yl}ethyl)piperidin-1-yl]-7-azaspiro[3.5]nonan-7-yl}methyl)piperidin-1-yl]methyl}piperidin-1-yl)-1,2-oxazol-5-yl]-3-methylbutanoyl]-4-hydroxy-N-[(1S)-1-[4-(4-methyl-1,3-thiazol-5-yl)phenyl]ethyl]pyrrolidine-2-carboxamide] are < 2.5 nM and > 75%. The corresponding values for `Cc1ncsc1-c1ccc([C@H](C)NC(=O)[C@@H]2C[C@@H](O)CN2C(=O)[C@@H](c2cc(N3CCC(CN4CCC(N[C@H]5C[C@H](Oc6cc(N7C8CCC7CN(c7cc(-c9ccccc9O)nnc7N)C8)ccn6)C5)CC4)CC3)no2)C(C)C)cc1` [Compound 10, (2S,4R)-4-hydroxy-N-[(1S)-1-[4-(4-methyl-1,3-thiazol-5-yl)phenyl]ethyl]-1-[(2R)-3-methyl-2-(3-{4-[(4-{[(1rs,3rs)-3-[(4-{3-[3-amino-6-(2-hydroxyphenyl)pyridazin-4-yl]-3,8-diazabicyclo[3.2.1]octan-8-yl}pyridin-2-yl)oxy]cyclobutyl]amino}piperidin-1-yl)methyl]piperidin-1-yl}-1,2-oxazol-5-yl)butanoyl]pyrrolidine-2-carboxamide] are < 2.5 nM and > 75%.

In the case of `Cc1ncsc1-c1ccc([C@H](C)NC(=O)[C@@H]2C[C@@H](O)CN2C(=O)[C@@H](c2cc(OCCN3CCC(O[C@H]4C[C@H](OC(=O)N5CCN(c6cc(-c7ccccc7O)nnc6N)CC5)C4)CC3)no2)C(C)C)cc1` [Compound 81, (1r,3r)-3-({1-[2-({5-[(2R)-1-[(2S,4R)-4-hydroxy-2-{[(1S)-1-[4-(4-methyl-1,3-thiazol-5-yl)phenyl]ethyl]carbamoyl}pyrrolidin-1-yl]-3-methyl-1-oxobutan-2-yl]-1,2-oxazol-3-yl}oxy)ethyl]piperidin-4-yl}oxy)cyclobutyl 4-[3-amino-6-(2-hydroxyphenyl)pyridazin-4-yl]piperazine-1-carboxylate], the DC50 was < 2.5 nM and the Dmax was > 75%. The corresponding values for `CC(C)[C@@H](C(=O)N1C[C@H](O)C[C@H]1C(=O)N[C@@H](C)c1ccc(C#N)cc1)c1cc(N2CCC(CN3CC[C@@H](Oc4cc(N5C6CCC5CN(c5cc(-c7ccccc7O)nnc5N)C6)ccn4)[C@@H](F)C3)CC2)no1` [Compound 157, (2S,4R)-1-[(2R)-2-[3-(4-{[(3S,4R)-4-[(4-{3-[3-amino-6-(2-hydroxyphenyl)pyridazin-4-yl]-3,8-diazabicyclo[3.2.1]octan-8-yl}pyridin-2-yl)oxy]-3-fluoropiperidin-1-yl]methyl}piperidin-1-yl)-1,2-oxazol-5-yl]-3-methylbutanoyl]-N-[(1S)-1-(4-cyanophenyl)ethyl]-4-hydroxypyrrolidine-2-carboxamide] are < 2.5 nM and > 75%. On the same counts, the results for `Cc1ncsc1-c1ccc([C@H](C)NC(=O)[C@@H]2C[C@@H](O)CN2C(=O)[C@@H](c2cc(N3CCC(CN4CCCC5(CC(N6CCO[C@H](CN7C8CCC7CN(c7cc(-c9ccccc9O)nnc7N)C8)C6)C5)C4)CC3)no2)C(C)C)cc1` (stereo partly drawn) [Compound 142, (2S,4R)-1-[(2R)-2-{3-[4-({2-[(2S)-2-({3-[3-amino-6-(2-hydroxyphenyl)pyridazin-4-yl]-3,8-diazabicyclo[3.2.1]octan-8-yl}methyl)morpholin-4-yl]-6-azaspiro[3.5]nonan-6-yl}methyl)piperidin-1-yl]-1,2-oxazol-5-yl}-3-methylbutanoyl]-4-hydroxy-N-[(1S)-1-[4-(4-methyl-1,3-thiazol-5-yl)phenyl]ethyl]pyrrolidine-2-carboxamide] are < 2.5 nM and > 75%. Take `Cc1ncsc1-c1ccc([C@H](C)NC(=O)[C@@H]2C[C@@H](O)CN2C(=O)[C@H](c2cc(N3CCN(C(=O)N4CCC(O[C@H]5C[C@H](Oc6cc(N7C8CCC7CN(c7cc(-c9ccccc9O)nnc7N)C8)ccn6)C5)CC4)CC3)no2)C(C)C)cc1` [Compound 124, (2S,4R)-4-hydroxy-N-[(1S)-1-[4-(4-methyl-1,3-thiazol-5-yl)phenyl]ethyl]-1-[(2R)-3-methyl-2-[3-(4-{4-[(1r,3r)-3-[(4-{3-[3-amino-6-(2-hydroxyphenyl)pyridazin-4-yl]-3,8-diazabicyclo[3.2.1]octan-8-yl}pyridin-2-yl)oxy]cyclobutoxy]piperidine-1-carbonyl}piperazin-1-yl)-1,2-oxazol-5-yl]butanoyl]pyrrolidine-2-carboxamide]: the DC50 was ≥ 30 nM.

Take `Cc1ncsc1-c1ccc([C@H](C)NC(=O)[C@@H]2C[C@@H](O)CN2C(=O)[C@H](c2cc(N3C4CCC3CC(CN3CCC(O[C@H]5C[C@H](Oc6cc(N7C8CCC7CN(c7cc(-c9ccccc9O)nnc7N)C8)ccn6)C5)CC3)C4)no2)C(C)C)cc1` (stereo partly drawn) [Compound 18, (2S,4R)-4-hydroxy-N-[(1S)-1-[4-(4-methyl-1,3-thiazol-5-yl)phenyl]ethyl]-1-[(2S)-3-methyl-2-{3-[3-({4-[(1r*,3r*)-3-[(4-{3-[3-amino-6-(2-hydroxyphenyl)pyridazin-4-yl]-3,8-diazabicyclo[3.2.1]octan-8-yl}pyridin-2-yl)oxy]cyclobutoxy]piperidin-1-yl}methyl)-8-azabicyclo[3.2.1]octan-8-yl]-1,2-oxazol-5-yl}butanoyl]pyrrolidine-2-carboxamide]: the DC50 was ≥ 30 nM.
